From PubChem BioAssay (NCI)
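Where inhibition never reached the appropriate level, the endpoint shown equals the highest concentration tested. Otherwise, values were interpolated linearly from a five-concentration, 48-hour dose response in 96-well plates. The concentration for 50% growth inhibition is given as GI50. TGI: total growth inhibition.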

Assays:
Assay in all cases: growth of human tumour cells (NCI), 48 h
[1] = tested on: TK-10 renal
[2] = tested on: HCC-2998 colon
[3] = tested on: MALME-3M melanoma
[4] = tested on: SR leukemia
[5] = tested on: HCT-116 colon
[6] = tested on: M14 melanoma
[7] = tested on: KM12 colon
[8] = tested on: A549 NSCLC
[9] = tested on: RXF 393 renal
[10] = tested on: A498 renal

Question: What does the source list for `N=C(N)SCc1cn2ccccc2n1`?
Answer: TGI [1]: > 100 µM; TGI [2]: > 100 µM; TGI [3]: > 100 µM; TGI [4]: > 100 µM; TGI [5]: > 100 µM; TGI [6]: > 100 µM; TGI [7]: > 100 µM; TGI [8]: > 100 µM

Question: Which TGI [1] does the source give for `N#Cc1ccc(-c2nc(C#N)c(N)o2)cc1` here?
Answer: > 10 µM

Question: What about the TGI [2] of the same molecule?
Answer: > 10 µM

Question: What about the TGI [3] of the same molecule?
Answer: > 10 µM

Question: What about the TGI [9] of the same molecule?
Answer: > 10 µM

Question: And the TGI [4]?
Answer: > 10 µM

Question: What about the TGI [5] of the same molecule?
Answer: > 10 µM

Question: What about the TGI [6] of the same molecule?
Answer: > 10 µM

Question: What about the TGI [7] of the same molecule?
Answer: > 10 µM

Question: What about the TGI [8] of the same molecule?
Answer: > 10 µM

Question: Which TGI [3] does the source give for `COc1ccc(C(C2=C(C)C(=O)c3ccccc3C2=O)c2ccc(C(C)C)cc(=O)c2O)cc1` (stereo not given) here?
Answer: > 100 µM

Question: And the TGI [4]?
Answer: 21.3 µM

Question: What about the TGI [5] of the same molecule?
Answer: 14.7 µM

Question: And the TGI [6]?
Answer: 6.24 µM

Question: What about the TGI [7] of the same molecule?
Answer: > 100 µM

Question: What about the TGI [8] of the same molecule?
Answer: 13.4 µM

Question: Which TGI [1] does the source give for `Nc1nc2c(ncn2Cc2ccccc2CCO)c(=O)[nH]1` here?
Answer: > 100 µM

Question: And the TGI [2]?
Answer: > 100 µM

Question: And the TGI [3]?
Answer: > 100 µM

Question: And the TGI [9]?
Answer: > 100 µM

Question: And the TGI [6]?
Answer: > 100 µM

Question: And the TGI [7]?
Answer: > 100 µM

Question: What about the TGI [8] of the same molecule?
Answer: > 100 µM

Question: And the TGI [10]?
Answer: > 100 µM

Question: Which results are given for `Cc1cc(Cl)ccc1NC(=O)C(=O)Cc1nc2ccc(C(=O)c3ccccc3)cc2[nH]c1=O`?
Answer: TGI [1]: > 100 µM; TGI [2]: > 100 µM; TGI [3]: > 100 µM; TGI [9]: > 100 µM; TGI [4]: > 100 µM; TGI [5]: > 100 µM; TGI [6]: > 100 µM; TGI [7]: > 100 µM; TGI [8]: > 100 µM

Question: How did the GI50 [1] turn out when `COc1cc(Nc2ccnc(N3CCN(c4ccnc5cc(Cl)ccc45)CC3)n2)cc(OC)c1` was run?
Answer: 2.22 µM

Question: And the TGI [1]?
Answer: > 100 µM

Question: What about the GI50 [2] of the same molecule?
Answer: 2.8 µM

Question: And the TGI [2]?
Answer: > 100 µM

Question: What about the GI50 [9] of the same molecule?
Answer: 1.86 µM

Question: What about the TGI [9] of the same molecule?
Answer: > 100 µM

Question: And the GI50 [5]?
Answer: 0.496 µM

Question: What about the TGI [5] of the same molecule?
Answer: 10.3 µM

Question: And the GI50 [7]?
Answer: 0.101 µM

Question: What about the TGI [7] of the same molecule?
Answer: > 100 µM

Question: What about the GI50 [8] of the same molecule?
Answer: 1.81 µM

Question: What about the TGI [8] of the same molecule?
Answer: > 26.7 µM

Question: How did the TGI [1] turn out when `COc1cc2nncc(Sc3cnnc4ccccc34)c2cc1OC` was run?
Answer: 81.3 µM

Question: And the TGI [2]?
Answer: 32.9 µM

Question: What about the TGI [3] of the same molecule?
Answer: 32.4 µM

Question: What about the TGI [6] of the same molecule?
Answer: > 100 µM

Question: And the TGI [7]?
Answer: 56.5 µM

Question: And the TGI [8]?
Answer: 71.9 µM

Question: And the TGI [10]?
Answer: 82 µM

Question: `O=C(c1ccccc1)c1c(CC(O)c2cccnc2)n(C(=O)c2ccccc2)c2ccccc12` (stereo not given) was tested. Which TGI [1] did it give?
Answer: 86.3 µM

Question: What about the TGI [2] of the same molecule?
Answer: 35 µM

Question: What about the TGI [3] of the same molecule?
Answer: 43.3 µM

Question: And the TGI [4]?
Answer: 35.1 µM

Question: What about the TGI [5] of the same molecule?
Answer: 30.8 µM

Question: What about the TGI [6] of the same molecule?
Answer: 33.5 µM

Question: And the TGI [7]?
Answer: 36.3 µM

Question: What about the TGI [8] of the same molecule?
Answer: > 100 µM

Question: `O=C1[C@@H](c2ccc(Cl)cc2)[C@H]2CC=C[C@H]2N1O` was tested. Which TGI [1] did it give?
Answer: > 100 µM

Question: And the TGI [2]?
Answer: > 100 µM

Question: What about the TGI [3] of the same molecule?
Answer: > 100 µM

Question: And the TGI [9]?
Answer: > 100 µM

Question: What about the TGI [6] of the same molecule?
Answer: > 100 µM

Question: What about the TGI [7] of the same molecule?
Answer: > 100 µM

Question: What about the TGI [8] of the same molecule?
Answer: > 100 µM

Question: How did the TGI [1] turn out when `COc1ccc(C2SC(N)=Nc3c2c(C)nn3C(=O)c2ccc(Cl)cc2)cc1OC` (stereo not given) was run?
Answer: > 10 µM

Question: And the TGI [2]?
Answer: > 10 µM

Question: And the TGI [3]?
Answer: > 10 µM

Question: What about the TGI [9] of the same molecule?
Answer: > 10 µM

Question: What about the TGI [4] of the same molecule?
Answer: > 10 µM

Question: What about the TGI [5] of the same molecule?
Answer: > 10 µM

Question: What about the TGI [6] of the same molecule?
Answer: > 10 µM

Question: And the TGI [7]?
Answer: > 10 µM

Question: And the TGI [8]?
Answer: > 10 µM

Question: Which results are given for `COC(=O)C1=CCON(c2ccccc2)C1c1ccccc1` (stereo not given)?
Answer: TGI [1]: > 100 µM; TGI [2]: > 100 µM; TGI [3]: > 100 µM; TGI [9]: > 100 µM; TGI [4]: > 100 µM; TGI [6]: > 100 µM; TGI [7]: > 100 µM; TGI [8]: > 100 µM

Question: Which results are given for `O=c1oc2ccccc2c(O)c1C=NC(=S)c1ccncc1`?
Answer: TGI [1]: > 100 µM; TGI [2]: > 100 µM; TGI [5]: > 100 µM; TGI [6]: > 100 µM; TGI [7]: > 100 µM; TGI [8]: > 100 µM

Question: For `COc1ccc(-n2nnc3c(sc4ccccc43)c2=O)cc1`, which GI50 [2] is on record?
Answer: > 100 µM

Question: What about the TGI [2] of the same molecule?
Answer: > 100 µM

Question: And the GI50 [6]?
Answer: > 100 µM

Question: And the TGI [6]?
Answer: > 100 µM

Question: What about the GI50 [7] of the same molecule?
Answer: > 100 µM

Question: And the TGI [7]?
Answer: > 100 µM

Question: `Cc1c(C)c2cc3c(=O)ccoc3c(C)c2oc1=O` was tested. Which TGI [1] did it give?
Answer: > 100 µM

Question: And the TGI [2]?
Answer: > 100 µM

Question: And the TGI [3]?
Answer: > 100 µM

Question: And the TGI [9]?
Answer: > 100 µM

Question: What about the TGI [6] of the same molecule?
Answer: > 100 µM

Question: And the TGI [7]?
Answer: > 100 µM

Question: What about the TGI [8] of the same molecule?
Answer: > 100 µM

Question: What about the TGI [10] of the same molecule?
Answer: > 100 µM

Question: For `CC(C)c1cccc(C(C)C)c1NC(=O)C(=O)C(C(=O)c1ccccc1-c1ccccc1)C1OC(=O)c2ccccc21` (stereo not given), which TGI [1] is on record?
Answer: 46.1 µM

Question: What about the TGI [2] of the same molecule?
Answer: 32.5 µM

Question: What about the TGI [3] of the same molecule?
Answer: 33.9 µM

Question: What about the TGI [9] of the same molecule?
Answer: 27 µM

Question: What about the TGI [4] of the same molecule?
Answer: > 100 µM

Question: And the TGI [5]?
Answer: 73.3 µM

Question: What about the TGI [7] of the same molecule?
Answer: 32.9 µM

Question: What about the TGI [8] of the same molecule?
Answer: > 100 µM

Question: How did the TGI [1] turn out when `COc1ccc(C2C(Cl)C(=O)N2n2cnc3ccccc3c2=O)cc1OC` (stereo not given) was run?
Answer: > 100 µM

Question: And the TGI [2]?
Answer: > 100 µM

Question: What about the TGI [3] of the same molecule?
Answer: > 100 µM

Question: What about the TGI [9] of the same molecule?
Answer: > 100 µM

Question: What about the TGI [4] of the same molecule?
Answer: > 100 µM

Question: And the TGI [5]?
Answer: > 100 µM

Question: And the TGI [6]?
Answer: > 100 µM

Question: And the TGI [7]?
Answer: > 100 µM

Question: And the TGI [8]?
Answer: > 100 µM

Question: `Clc1ccc([O][In]([O]c2ccc(Cl)cn2)[O]c2ccc(Cl)cn2)nc1` was tested. Which GI50 [1] did it give?
Answer: > 100 µM

Question: What about the TGI [1] of the same molecule?
Answer: > 100 µM

Question: What about the GI50 [2] of the same molecule?
Answer: > 100 µM

Question: What about the TGI [2] of the same molecule?
Answer: > 100 µM

Question: And the GI50 [3]?
Answer: > 100 µM

Question: What about the TGI [3] of the same molecule?
Answer: > 100 µM

Question: And the GI50 [9]?
Answer: > 100 µM

Question: What about the TGI [9] of the same molecule?
Answer: > 100 µM

Question: What about the GI50 [4] of the same molecule?
Answer: > 100 µM

Question: And the TGI [4]?
Answer: > 100 µM

Question: And the GI50 [5]?
Answer: > 100 µM

Question: And the TGI [5]?
Answer: > 100 µM

Question: What about the GI50 [6] of the same molecule?
Answer: > 100 µM

Question: What about the TGI [6] of the same molecule?
Answer: > 100 µM

Question: And the GI50 [7]?
Answer: > 100 µM

Question: And the TGI [7]?
Answer: > 100 µM

Question: What about the GI50 [8] of the same molecule?
Answer: > 100 µM

Question: And the TGI [8]?
Answer: > 100 µM

Question: For `COc1ccc(OC)c(-c2cc(-c3ccccc3)nn2-c2ccc(S(=O)(=O)NC(C)=O)cc2)c1`, which GI50 [1] is on record?
Answer: 12.8 µM

Question: What about the TGI [1] of the same molecule?
Answer: 33.1 µM

Question: And the GI50 [2]?
Answer: 3.08 µM

Question: What about the TGI [2] of the same molecule?
Answer: 13.8 µM

Question: And the GI50 [9]?
Answer: 4.07 µM

Question: What about the TGI [9] of the same molecule?
Answer: 9.31 µM

Question: And the GI50 [4]?
Answer: 2.38 µM

Question: What about the TGI [4] of the same molecule?
Answer: > 100 µM

Question: And the GI50 [6]?
Answer: 2.74 µM

Question: And the TGI [6]?
Answer: 8.74 µM

Question: What about the GI50 [7] of the same molecule?
Answer: 4.66 µM

Question: What about the TGI [7] of the same molecule?
Answer: 39.6 µM

Question: What about the GI50 [8] of the same molecule?
Answer: 22.9 µM

Question: And the TGI [8]?
Answer: > 100 µM
